Results reported in patent US20230011869A1 (Hoffmann-La Roche Inc., priority 2018, published 2023).
Counter-ions that a name gives are not always drawn.

These compounds were tested on Acinetobacter baumannii ATCC17978 (assay: Antimicrobial susceptibility testing: 90% growth inhibitory concentration (IC90) determination, Iso-Sensitest broth). Details: 90% growth inhibitory concentration, Acinetobacter baumannii ATCC17978, Iso-Sensitest broth, OD 600 nm over 16 h; read-out: ATCC17978 IC90.
Format: cell-based
Procedure, shortened: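 A. baumannii ATCC17978 grown in Iso-Sensitest broth across 10 compound concentrations at 35±2 °C.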

| Structure (SMILES) | IC90 |
| --- | --- |
| COc1ccc(-c2cnc3c(Nc4ccc(C(=O)N5CCN(C(=O)C6CCNCC6)CC5)c(C)c4)nccn23)c(F)c1F [Example 485, [4-[[3-(2,3-difluoro-4-methoxyphenyl)imidazo[1,2-a]pyrazin-8-yl]amino]-2-methylphenyl]-[4-(piperidine-4-carbonyl)piperazin-1-yl]methanone; hydrochloride] | 0.19 µM |
| Cc1cc(Nc2nccn3c(-c4ccc(OCC#N)c(F)c4F)cnc23)ccc1C(=O)N1CCC(C(=O)N2CCNC[C@H]2CO)CC1 [Example 492, 2-[2,3-difluoro-4-[8-[4-[4-[(2S)-2-(hydroxymethyl)piperazine-1-carbonyl]piperidine-1-carbonyl]-3-methylanilino]imidazo[1,2-a]pyrazin-3-yl]phenoxy]acetonitrile; for-mic acid] | 0.31 µM |
| Cc1cc(Nc2nccn3c(-c4ccc(OCC#N)c(F)c4F)cnc23)ccc1C(=O)N1CCC(C(=O)N2CCNC[C@@H]2CO)CC1 [Example 497, 2-[2,3-difluoro-4-[8-[4-[4-[(2R)-2-(hydroxymethyl)piperazine-1-carbonyl]piperidine-1-carbonyl]-3-methylanilino]imidazo[1,2-a]pyrazin-3-yl]phenoxy]acetonitrile; for-mic acid] | 0.33 µM |
| Cc1cc(Nc2nccn3c(-c4ccc(OCC#N)c(F)c4F)cnc23)ccc1C(=O)N1CCN(C(=O)C2CNC2)CC1 [Example 504, 2-[4-[8-[4-[4-(azetidine-3-carbonyl)piperazine-1-carbonyl]-3-methylanilino]imidazo[1,2-a]pyrazin-3-yl]-2,3-difluorophenoxy]acetonitrile; formic acid] | 0.49 µM |
| CCc1cc(Nc2nccn3c(-c4ccc(OCC#N)c(F)c4F)cnc23)ccc1C(=O)N1CCN(C(=O)[C@@H]2C[C@@H](O)CN2)CC1 [Example 510, 2-[4-[8-[3-ethyl-4-[4-[(2S,4R)-4-hydroxypyrrolidine-2-carbonyl]piperazine-1-carbonyl]annilino]imidazo[1,2-a]pyrazin-3-yl]-2,3-difluorophenoxy]acetonitrile; formic acid] | 0.55 µM |

Same assay, conditions: Acinetobacter baumannii, ATCC17978, 16 h, read-out: ATCC17978 IC90, 90% growth inhibitory concentration, Acinetobacter baumannii ATCC17978, Iso-Sensitest broth, OD 600 nm over 16 h

| Structure (SMILES) | IC90 |
| --- | --- |
| Cc1cc(Nc2nccn3c(-c4ccc(OC(F)F)cc4)cnc23)ccc1C(=O)N1CCN(C(=O)[C@@H]2CCNC2)CC1 [Example 486, [4-[[3-[4-(difluoromethoxy)phenyl]imi-dazo[1,2-a]pyrazin-8-yl]amino]-2-methylphenyl]-[4-[(3R)-pyrrolidine-3-carbonyl]piperazin-1-yl]methanone; hydrochloride] | 0.19 µM |
| Cc1cc(Nc2nccn3c(-c4ccc(OC(F)F)cc4)cnc23)ccc1C(=O)N1CCN(C(=O)C2C3CCC2CNC3)CC1 (stereo not drawn) [Example 488, [4-(3-azabicyclo[3.2.1]octane-8-carbonyl)piperazin-1-yl]-[4-[[3-[4-(difluoromethoxy)phenyl]imi-dazo[1,2-a]pyrazin-8-yl]amino]-2-methylphenyl]methanone; hy-drochloride] | 0.24 µM |
| Cc1cc(Nc2nccn3c(-c4ccc(OC(F)F)cc4)cnc23)ccc1C(=O)N1CCN(C(=O)C2(O)CCNCC2)CC1 [Example 490, [4-[[3-[4-(difluoromethoxy)phenyl]imi-dazo[1,2-a]pyrazin-8-yl]amino]-2-methylphenyl]-[4-(4-hydroxypiperidine-4-carbonyl)piperazin-1-yl]methanone; hydrochloride] | 0.28 µM |
| Cc1cc(Nc2nccn3c(-c4ccc(OC(F)F)cc4)cnc23)ccc1C(=O)N1CCN(C(=O)N[C@@H](C)CN)CC1 [Example 491, N-[(2S)-1-aminopropan-2-yl]-4-[4-[[3-[4-(difluoromethoxy)phenyl]imi-dazo[1,2-a]pyrazin-8-yl]amino]-2-methylbenzoyl]piperazine-1-carboxamide] | 0.3 µM |
| Cc1cc(Nc2nccn3c(-c4ccc(OC(F)F)cc4)cnc23)ccc1C(=O)N1CCN(C(=O)NCC2(O)CNC2)CC1 [Example 493, 4-[4-[[3-[4-(difluoromethoxy)phenyl]imi-dazo[1,2-a]pyrazin-8-yl]amino]-2-methylbenzoyl]-N-[(3-hydroxyazetidin-3-yl)methyl]piperazine-1-carboxamide; formic acid] | 0.31 µM |
| CCc1cc(Nc2nccn3c(-c4ccc(OC)c(F)c4F)cnc23)ccc1C(=O)N1CCN(C(=O)C2CCNCC2)CC1 [Example 494, [4-[[3-(2,3-difluoro-4-methoxyphenyl)imidazo[1,2-a]pyrazin-8-yl]amino]-2-ethylphenyl]-[4-(piperidine-4-carbonyl)piperazin-1-yl]methanone; hydrochloride] | 0.32 µM |
| Cc1cc(Nc2nccn3c(-c4ccc(OC(F)F)cc4)cnc23)ccc1C(=O)N1CCN(C(=O)[C@H]2CCNC2)CC1 [Example 495, [4-[[3-[4-(difluoromethoxy)phenyl]imi-dazo[1,2-a]pyrazin-8-yl]amino]-2-methylphenyl]-[4-[(3S)-pyrrolidine-3-carbonyl]piperazin-1-yl]methanone; hydrochloride] | 0.32 µM |
| Cc1cc(Nc2nccn3c(-c4ccc(OC(F)F)cc4)cnc23)ccc1C(=O)N1CCN(C(=O)N2CCO[C@H](CN)C2)CC1 [Example 496, [4-[(2R)-2-(aminomethyl)morpholine-4-carbonyl]piperazin-1-yl]-[4-[[3-[4-(difluoromethoxy)phenyl]imi-dazo[1,2-a]pyrazin-8-yl]amino]-2-methylphenyl]methanone; for-mic acid] | 0.33 µM |
| Cc1cc(Nc2nccn3c(-c4ccc(OCC#N)c(F)c4F)cnc23)ccc1C(=O)N1CCC(C(=O)OC[C@H]2CNCCN2)CC1 [Example 499, formic acid; [(2R)-piperazin-2-yl]methyl 1-[4-[[3-[4-(cyanomethoxy)-2,3-difluorophenyl]imidazo[1,2-a]pyrazin-8-yl]amino]-2-methylbenzoyl]piperidine-4-carboxylate] | 0.36 µM |
| Cc1cc(Nc2nccn3c(-c4ccc(OC(F)F)cc4)cnc23)ccc1C(=O)N1CCN(C(=O)N2CCNC(CN)C2)CC1 (stereo not drawn) [Example 500, [4-[3-(aminomethyl)piperazine-1-carbonyl]piperazin-1-yl]-[4-[[3-[4-(difluoromethoxy)phenyl]imi-dazo[1,2-a]pyrazin-8-yl]amino]-2-methylphenyl]methanone; for-mic acid] | 0.39 µM |
| Cc1cc(Nc2nccn3c(-c4ccc(OC(F)F)cc4)cnc23)ccc1C(=O)N1CCN(C(=O)C2C=CNCC2)CC1 (stereo not drawn) [Example 501, [4-[[3-[4-(difluoromethoxy)phenyl]imi-dazo[1,2-a]pyrazin-8-yl]amino]-2-methylphenyl]-[4-(1,2,3,4-tetrahydropyridine-4-carbonyl)piperazin-1-yl]methanone; hydrochloride] | 0.41 µM |
| Cc1cc(Nc2nccn3c(-c4ccc(OC(F)F)cc4)cnc23)ccc1C(=O)N1CCN(C(=O)C2CCNCC2F)CC1 (stereo not drawn) [Example 502, [4-[[3-[4-(difluoromethoxy)phenyl]imi-dazo[1,2-a]pyrazin-8-yl]amino]-2-methylphenyl]-[4-(3-fluoropiperidine-4-carbonyl)piperazin-1-yl]methanone; hydrochloride] | 0.47 µM |
| Cc1cc(Nc2nccn3c(-c4ccc(OC(F)F)cc4)cnc23)ccc1C(=O)N1CCN(C(=O)[C@@H]2CCNC[C@H]2O)CC1 [Example 503, [4-[[3-[4-(difluoromethoxy)phenyl]imi-dazo[1,2-a]pyrazin-8-yl]amino]-2-methylphenyl]-[4-[(3S,4R)-3-hydroxypiperidine-4-carbonyl]piperazin-1-yl]methanone] | 0.47 µM |
| Cc1cc(Nc2nccn3c(-c4ccc(OC(F)F)cc4)cnc23)ccc1C(=O)N1CCN(C(=O)N2CCNCC2CO)CC1 (stereo not drawn) [Example 505, [4-[[3-[4-(difluoromethoxy)phenyl]imi-dazo[1,2-a]pyrazin-8-yl]amino]-2-methylphenyl]-[4-[2-(hydroxymethyl)piperazine-1-carbonyl]piperazin-1-yl]methanone] | 0.5 µM |
| Cc1cc(Nc2nccn3c(-c4ccc(OC(F)F)cc4)cnc23)ccc1C(=O)N1CCN(C(=O)C2(C)CCNCC2)CC1 [Example 506, [4-[[3-[4-(difluoromethoxy)phenyl]imi-dazo[1,2-a]pyrazin-8-yl]amino]-2-methylphenyl]-[4-(4-methylpiperidine-4-carbonyl)piperazin-1-yl]methanone; hydrochloride] | 0.51 µM |
| Cc1cc(Nc2nccn3c(-c4ccc(OC(F)F)cc4)cnc23)ccc1C(=O)N1CCN(C(=O)[C@H]2CCNC[C@@H]2O)CC1 [Example 507, [4-[[3-[4-(difluoromethoxy)phenyl]imi-dazo[1,2-a]pyrazin-8-yl]amino]-2-methylphenyl]-[4-[(3R,4S)-3-hydroxypiperidine-4-carbonyl]piperazin-1-yl]methanone] | 0.51 µM |
| Cc1cc(Nc2nccn3c(-c4ccc(OC(F)F)cc4)cnc23)ccc1C(=O)N1CCN(C(=O)[C@H]2CNCCN2)CC1 [Example 508, [4-[[3-[4-(difluoromethoxy)phenyl]imi-dazo[1,2-a]pyrazin-8-yl]amino]-2-methylphenyl]-[4-[(2R)-piperazine-2-carbonyl]piperazin-1-yl]methanone; hydrochloride] | 0.53 µM |
| Cc1cc(Nc2nccn3c(-c4ccc(OC(F)F)cc4)cnc23)ccc1C(=O)N1CCN(C(=O)C2(N)CCNCC2)CC1 [Example 509, [4-(4-aminopiperidine-4-carbonyl)piperazin-1-yl]-[4-[[3-[4-(difluoromethoxy)phenyl]imi-dazo[1,2-a]pyrazin-8-yl]amino]-2-methylphenyl]methanone; hy-drochloride] | 0.54 µM |

Same assay, conditions: read-out: ATCC17978 IC90; 90% growth inhibitory concentration, Acinetobacter baumannii ATCC17978, Iso-Sensitest broth, OD 600 nm over 16 h; hydrochloride

| Structure (SMILES) | IC90 |
| --- | --- |
| Cc1cc(Nc2nccn3c(-c4ccc(OC(F)F)cc4)cnc23)ccc1C(=O)N1CCN(C(=O)C2(F)CCNCC2)CC1 [Example 487, [4-[[3-[4-(difluoromethoxy)phenyl]imi-dazo[1,2-a]pyrazin-8-yl]amino]-2-methylphenyl]-[4-(4-fluoropiperidine-4-carbonyl)piperazin-1-yl]methanone; hydrochloride] | 0.22 µM |
